Test results: patent US20040219097A1, “Composition useful for the diagnosis, imaging and treatment of tumors” (priority 2003, published 2004)

Columns and labels:
JJ5 Breast Cancer cells [1] = test: Growth inhibition assay against JJ5 breast cancer cells; type: cell-based, human; settings: 4 days culture
Experimental: Growth medium was added and the cells were cultured at 37° C./5% CO^2 for 4 days. The cells were then recovered by trypsinization and counted in a hemocytometer. Control dishes contained cells cultured in growth medium containing ^111In-DTPA or growth medium alone.

JJ5 Breast Cancer cells [2] = test: Cytotoxicity (colony-forming) assay against JJ5 breast cancer cells; type: cell-based, human; settings: 14 days
Experimental: The number of cells seeded was varied from 3×10^4 to 3×10^6cells to obtain approximately 400 viable colonies/dish taking into account the plating efficiency and the expected level of cytotoxicity. Control dishes contained JJ5 breast cancer cells which were incubated with normal saline. Growth medium was added and the cells were cultured at 37° C./5% CO^2 for 14 days. The growth medium was removed and the colonies were stained with methylene blue (1% in a 1:1 mixture of ethanol and water) then washed twice. The number of colonies per dish was counted using a manual colony counter (Manostat Corp). The plating efficiency was calculated by dividing the number of colonies observed by the number of cells seeded in each dish.

JJ5 Breast Cancer cells [3] = test: Binding of EGF-^111In-labeled transferrin compound to breast cancer cells (radioligand binding, kinetics, retention); design: species or system human
Experimental: For the normal breast cell line HBL-100, 8000 EGFR/cell has been reported. The expression of EGFR in breast cancer cell lines has a reported range of 800 EGFR/cell for MCF-7 cells to 10^6 EGFR/cell for MDA-MB-468 cells. […] Utilizing the Auger electron emitter ^111In was used in the initial experiments to illustrate the utility of the invention using EGF-^111In-labeled transferrin compounds. The EGF-^111In-labeled transferrin (0.25-80 ng) was incubated with 1.5×10^6 cells/dish JJ5 Breast Cancer (prepared from BCBM JJ5) cells in 1 mL of 0.1% human serum albumin in 35 mm multiwell culture dishes at 37° C. for 30 minutes. The cells were transferred to a centrifuge tube and centrifuged. The cell pellet was separated from the supernatant and counted in a g-scintillation counter to determine bound (B) and free (F) radioactivity. Non-specific binding was determined by conducting the assay in 100 nM hEGF. […] Internalized fraction was measured by determining the proportion of radioactivity which could not be displaced from the cell surface by 100 nM hEGF. Cell-associated binding (surface-binding and intracellular accumulation) was expressed as a percentage of medium radioactivity bound per mg of cell study protein.

## [In+3].[O-]c1cccc2cccnc12.[O-]c1cccc2cccnc12.[O-]c1cccc2cccnc12 [^111In-oxine, reference compound]
JJ5 Breast Cancer cells [1]; 3.5 pCi/cell
  growth inhibition of the JJ5 cells compared to the medium control: 91%
JJ5 Breast Cancer cells [2]; <6 pCi/cell
  cell killing: greater than 99%

## EGF-^111In-labeled transferrin compound: human EGF linked to ^111In-labeled human transferrin
JJ5 Breast Cancer cells [3]
  internalization by cancer cells, in words: rapidly internalized
JJ5 Breast Cancer cells [3]; JJ5 cells, 37° C.
  binding by the breast cancer cells (kinetics, in words): rapidly bound
  retained by the breast cancer cells: at least 24 hours
JJ5 Breast Cancer cells [3]; JJ5 cells, 37° C., 30 minutes
  affinity constant for binding to JJ5 cells: 8e+08 L/mol
JJ5 Breast Cancer cells [1]; 3.4 pCi/cell
  growth inhibition of the JJ5 cells compared to the medium control: 83%
JJ5 Breast Cancer cells [2]; 8 pCi/cell
  reduction in cell survival for JJ5 cells: 99%
